Results taken from paper PMC10308197 (Cell Insight, 2023).
Values belong to the molecule of their own block, whether it stands above or below them.

Columns and labels:
[1] = biological target: T1, METTL9 (Homo sapiens, UniProt Q9H1A3); assay type: biochemical; conditions: mono-methylated product monitored, N = 3
Target sequence in this assay (Q9H1A3 19-318): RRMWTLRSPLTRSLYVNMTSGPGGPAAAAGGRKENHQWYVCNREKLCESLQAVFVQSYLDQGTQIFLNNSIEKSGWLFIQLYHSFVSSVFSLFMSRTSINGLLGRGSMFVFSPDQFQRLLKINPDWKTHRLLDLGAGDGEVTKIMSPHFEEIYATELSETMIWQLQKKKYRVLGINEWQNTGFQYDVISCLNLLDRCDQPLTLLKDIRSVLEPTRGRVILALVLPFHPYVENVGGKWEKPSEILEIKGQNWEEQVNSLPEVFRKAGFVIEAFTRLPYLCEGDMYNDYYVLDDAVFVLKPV

[2] = system: METTL9 mutants; assay: ITC of mutant METTL9 titrated with SAH; assay type: binding, human; conditions: METTL9 T173A, T115A and N118A (range over the three mutants)
[3] = biological target: T1, METTL9; assay: Isothermal titration calorimetry; assay type: binding
Target sequence in this assay (Q9H1A3 whole entry): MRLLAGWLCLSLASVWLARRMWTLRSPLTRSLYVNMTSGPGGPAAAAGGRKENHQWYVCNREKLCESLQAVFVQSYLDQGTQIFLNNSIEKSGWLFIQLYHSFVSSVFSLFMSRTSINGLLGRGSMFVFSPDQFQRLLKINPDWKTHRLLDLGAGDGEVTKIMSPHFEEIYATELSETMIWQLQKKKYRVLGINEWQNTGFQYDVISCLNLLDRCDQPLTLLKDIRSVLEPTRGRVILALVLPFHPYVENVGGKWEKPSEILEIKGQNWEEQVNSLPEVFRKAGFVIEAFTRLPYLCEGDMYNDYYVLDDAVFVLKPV

[4] = biological target: D213S or D213N; assay: ITC
[5] = biological target: T115A, V241G, and C297A; assay: ITC
[6] = biological target: METTL9 T115A (human, UniProt Q9H1A3 19-318, T115A); assay: ITC
METTL9 T115A, sequence (Q9H1A3 19-318 T115A): as the sequence (Q9H1A3 19-318) above, with T97A counted along it

[7] = biological target: METTL9 D213S (human, UniProt Q9H1A3 19-318, D213S); assay: ITC
METTL9 D213S, sequence (Q9H1A3 19-318 D213S): as the sequence (Q9H1A3 19-318) above, with D195S counted along it

[8] = biological target: METTL9 D213N (human, UniProt Q9H1A3 19-318, D213N); assay: ITC
METTL9 D213N, sequence (Q9H1A3 19-318 D213N): as the sequence (Q9H1A3 19-318) above, with D195N counted along it

Molecule: O=C(O)CN(CCN(CC(=O)O)CC(=O)O)CC(=O)O [EDTA, ethylenediaminetetraacetic acid]
effect on METTL9 enzymatic activity towards SLC39A7_55-70 in presence of zinc ([1]; zinc ions removed by EDTA): completely restored

Molecule: Nc1ncnc2c1ncn2[C@@H]1O[C@H](CSCC[C@H](N)C(=O)O)[C@@H](O)[C@H]1O [SAH, S-adenosylhomocysteine]
decrease in SAH binding relative to wild type [2]: 2–10 fold
Kd [3]: 3.1 µM

Molecule: C[S+](CC[C@H](N)C(=O)[O-])C[C@H]1O[C@@H](n2cnc3c(N)ncnc32)[C@H](O)[C@@H]1O (some centres unmarked) [SAM, S-adenosylmethionine]
Kd [3]: 1.6 µM

Molecule: Ac-HTHESWIHG-NH2 [SLC39A7_66-74]
Kd [3]: 6.7 µM

More lines, now with the values ahead:

effect on histidine methylation of SLC39A7_55-70 by METTL9 ([1]; 0.5 mM ZnCl2 added): substantially inhibited
Molecule: [Cl-].[Cl-].[Zn+2] [ZnCl2]

fold weakening of binding against wild-type METTL9 [4]: 4 to 6 fold
fold reduction of binding against wild-type METTL9 [5]: 6 to 10 fold
binding result [6]: binds
binding result [7]: binds
binding result [8]: binds
Molecule: HTHESIWHG [SLC39A7_(66-74) peptide]
